The source of these data is patent publication US11759462B2, “Spirocyclic compounds as tryptophan hydroxylase inhibitors” (priority 2013, dated 2023).

Some results are limits rather than exact numbers.

The first assay addresses T1, Recombinant human TPH1 (MBP tagged) (Homo sapiens, UniProt P17752).
T1 construct: cloning full length human TPH1 cDNA in to a bacterial pMAL-c5E expression vector; made in house; host or cells: E. coli BL21 (DE3)
T1 sequence (P17752 1-444): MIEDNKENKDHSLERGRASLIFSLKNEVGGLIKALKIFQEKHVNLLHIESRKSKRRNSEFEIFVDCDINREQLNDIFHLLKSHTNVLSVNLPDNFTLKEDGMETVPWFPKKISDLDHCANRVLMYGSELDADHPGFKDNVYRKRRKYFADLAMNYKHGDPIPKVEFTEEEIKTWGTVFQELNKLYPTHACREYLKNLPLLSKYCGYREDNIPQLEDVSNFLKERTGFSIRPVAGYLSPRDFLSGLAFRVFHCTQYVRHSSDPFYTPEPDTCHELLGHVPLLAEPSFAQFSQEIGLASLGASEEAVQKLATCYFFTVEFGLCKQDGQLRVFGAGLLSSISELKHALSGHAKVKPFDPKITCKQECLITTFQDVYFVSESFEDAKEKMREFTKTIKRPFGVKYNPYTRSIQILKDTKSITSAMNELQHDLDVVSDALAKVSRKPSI
Description: TPH1 in vitro inhibition assay (kinetic fluorescence). It is filed as biochemical. To be noted: TPH1 Range (TPH1 inhibition IC50). The method in brief:
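Final mix: 15 nM MBP-TPH1, 30 μM Trp, 36 μM 6-methyltetrahydropterin, 25 μM ferrous ammonium sulfate, 50 mM MES pH 7.1, 1% DMSO, room temperature.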
In general, IC50 refers to the concentration at which inhibition is half-maximal. As to `Nc1nc(O[C@H](c2ccc(Cl)cc2-c2cccc(F)c2)C(F)(F)F)cc(N2CCC3(CC2)CN[C@H](C(=O)O)C3)n1` [Example 34as, (S)-8-(2-amino-6-((R)-1-(5-chloro-3′-fluoro-[1,1′-biphenyl]-2-yl)-2,2,2-trifluoroethoxy)pyrimidin-4-yl)-2,8-diazaspiro[4.5]decane-3-carboxylic acid], the 50% inhibitory concentration (IC50) is under 50 nM.
Take `Cc1cc(-c2cc(Cl)ccc2[C@@H](Oc2cc(N3CCC4(CC3)CN[C@H](C(=O)O)C4)nc(N)n2)C(F)(F)F)ccc1Cl` [Example 34at, (S)-8-(2-amino-6-((R)-1-(4′,5-dichloro-3′-methyl-[1,1′-biphenyl]-2-yl)-2,2,2-trifluoroethoxy)pyrimidin-4-yl)-2,8-diazaspiro[4.5]decane-3-carboxylic acid]: the IC50 fell in the range of 50 to 300 nM.
On to `Nc1nc(O[C@H](c2ccc(Cl)cc2-c2cc(F)cc(F)c2)C(F)(F)F)cc(N2CCC3(CC2)CN[C@H](C(=O)O)C3)n1` [Example 34au, (S)-8-(2-amino-6-((R)-1-(5-chloro-3′,5′-difluoro-[1,1′-biphenyl]-2-yl)-2,2,2-trifluoroethoxy)pyrimidin-4-yl)-2,8-diazaspiro[4.5]decane-3-carboxylic acid], for which the IC50 is under 50 nM.
For the molecule `Nc1nc(O[C@H](c2ccc(Cl)cc2-c2ccc(F)c(F)c2)C(F)(F)F)cc(N2CCC3(CC2)CN[C@H](C(=O)O)C3)n1` [Example 34aw, (S)-8-(2-amino-6-((R)-1-(5-chloro-3′,4′-difluoro-[1,1′-biphenyl]-2-yl)-2,2,2-trifluoroethoxy)pyrimidin-4-yl)-2,8-diazaspiro[4.5]decane-3-carboxylic acid], the IC50 is under 50 nM.
As to `Cc1cccc(-c2cc(Cl)ccc2[C@@H](Oc2cc(N3CCC4(CC3)CN[C@H](C(=O)O)C4)nc(N)n2)C(F)(F)F)c1` [Example 34b, (S)-8-(2-amino-6-((R)-1-(5-chloro-3′-methyl-[1,1′-biphenyl]-2-yl)-2,2,2-trifluoroethoxy)pyrimidin-4-yl)-2,8-diazaspiro[4.5]decane-3-carboxylic acid], the 50% inhibitory concentration (IC50) is under 50 nM.

Still in this assay, the particulars now being: read-out: TPH1 Range (TPH1 inhibition IC50).
For `Nc1nc(O[C@H](c2ccc(Cl)cc2-c2ccc(F)c(Cl)c2)C(F)(F)F)cc(N2CCC3(CC2)CN[C@H](C(=O)O)C3)n1` [Example 34av, (S)-8-(2-amino-6-((R)-1-(3′,5-dichloro-4′-fluoro-[1,1′-biphenyl]-2-yl)-2,2,2-trifluoroethoxy)pyrimidin-4-yl)-2,8-diazaspiro[4.5]decane-3-carboxylic acid], the IC50 was under 50 nM.
Same read-out and setting: in the case of `Nc1nc(O[C@H](c2ccc(Cl)cc2-c2ccc(C(F)(F)F)c(Cl)c2)C(F)(F)F)cc(N2CCC3(CC2)CN[C@H](C(=O)O)C3)n1` [Example 34ax, (S)-8-(2-amino-6-((R)-1-(3′,5-dichloro-4′-(trifluoromethyl)-[1,1′-biphenyl]-2-yl)-2,2,2-trifluoroethoxy)pyrimidin-4-yl)-2,8-diazaspiro[4.5]decane-3-carboxylic acid] it was 50 to 300 nM.
For `Cc1ccc(-c2cc(Cl)ccc2[C@@H](Oc2cc(N3CCC4(CC3)CN[C@H](C(=O)O)C4)nc(N)n2)C(F)(F)F)cc1C` [Example 34ay, (S)-8-(2-amino-6-((R)-1-(5-chloro-3′,4′-dimethyl-[1,1′-biphenyl]-2-yl)-2,2,2-trifluoroethoxy)pyrimidin-4-yl)-2,8-diazaspiro[4.5]decane-3-carboxylic acid], the IC50 is 50 to 300 nM.
As to `CCOc1ccc(-c2cc(Cl)ccc2[C@@H](Oc2cc(N3CCC4(CC3)CN[C@H](C(=O)O)C4)nc(N)n2)C(F)(F)F)cc1F` [Example 34az, (S)-8-(2-amino-6-((R)-1-(5-chloro-4′-ethoxy-3′-fluoro-[1,1′-biphenyl]-2-yl)-2,2,2-trifluoroethoxy)pyrimidin-4-yl)-2,8-diazaspiro[4.5]decane-3-carboxylic acid], the 50% inhibitory concentration (IC50) fell in the range of 300 to 3000 nM.
Take `Cc1cc(C)cc(-c2cc(Cl)ccc2[C@@H](Oc2cc(N3CCC4(CC3)CN[C@H](C(=O)O)C4)nc(N)n2)C(F)(F)F)c1` [Example 34ba, (S)-8-(2-amino-6-((R)-1-(5-chloro-3′,5′-dimethyl-[1,1′-biphenyl]-2-yl)-2,2,2-trifluoroethoxy)pyrimidin-4-yl)-2,8-diazaspiro[4.5]decane-3-carboxylic acid]: the IC50 is under 50 nM.
On to `Cc1cc(-c2cc(Cl)ccc2[C@@H](Oc2cc(N3CCC4(CC3)CN[C@H](C(=O)O)C4)nc(N)n2)C(F)(F)F)ccc1OC(F)(F)F` [Example 34bb, (S)-8-(2-amino-6-((R)-1-(5-chloro-3′-methyl-4′-(trifluoromethoxy)-[1,1′-biphenyl]-2-yl)-2,2,2-trifluoroethoxy)pyrimidin-4-yl)-2,8-diazaspiro[4.5]decane-3-carboxylic acid], for which the IC50 fell in the range of 50 to 300 nM.
`Cc1cc(-c2cc(Cl)ccc2[C@@H](Oc2cc(N3CCC4(CC3)CN[C@H](C(=O)O)C4)nc(N)n2)C(F)(F)F)cc(C)c1Cl` [Example 34bc, (S)-8-(2-amino-6-((R)-1-(4′,5-dichloro-3′,5′-dimethyl-[1,1′-biphenyl]-2-yl)-2,2,2-trifluoroethoxy)pyrimidin-4-yl)-2,8-diazaspiro[4.5]decane-3-carboxylic acid]: the IC50 lay within 50 to 300 nM.
On to `Cc1cc(-c2cc(Cl)ccc2[C@@H](Oc2cc(N3CCC4(CC3)CN[C@H](C(=O)O)C4)nc(N)n2)C(F)(F)F)ccc1F` [Example 34bd, (S)-8-(2-amino-6-((R)-1-(5-chloro-4′-fluoro-3′-methyl-[1,1′-biphenyl]-2-yl)-2,2,2-trifluoroethoxy)pyrimidin-4-yl)-2,8-diazaspiro[4.5]decane-3-carboxylic acid], for which the IC50 was under 50 nM.
Regarding `Cc1cc(Cl)cc(-c2cc(Cl)ccc2[C@@H](Oc2cc(N3CCC4(CC3)CN[C@H](C(=O)O)C4)nc(N)n2)C(F)(F)F)c1` [Example 34be, (S)-8-(2-amino-6-((R)-1-(3′,5-dichloro-5′-methyl-[1,1′-biphenyl]-2-yl)-2,2,2-trifluoroethoxy)pyrimidin-4-yl)-2,8-diazaspiro[4.5]decane-3-carboxylic acid], the 50% inhibitory concentration (IC50) is under 50 nM.
For `Nc1nc(O[C@H](c2ccc(Cl)cc2-c2cc(F)c(F)c(F)c2)C(F)(F)F)cc(N2CCC3(CC2)CN[C@H](C(=O)O)C3)n1` [Example 34bf, (S)-8-(2-amino-6-((R)-1-(5-chloro-3′,4′,5′-trifluoro-[1,1′-biphenyl]-2-yl)-2,2,2-trifluoroethoxy)pyrimidin-4-yl)-2,8-diazaspiro[4.5]decane-3-carboxylic acid], the IC50 was in the range of 50 to 300 nM.
As for `Nc1nc(O[C@H](c2ccc(Cl)cc2-c2cccc(OC(F)(F)F)c2)C(F)(F)F)cc(N2CCC3(CC2)CN[C@H](C(=O)O)C3)n1` [Example 34bg, (S)-8-(2-amino-6-((R)-1-(5-chloro-3′-(trifluoromethoxy)-[1,1′-biphenyl]-2-yl)-2,2,2-trifluoroethoxy)pyrimidin-4-yl)-2,8-diazaspiro[4.5]decane-3-carboxylic acid], the IC50 fell in the range of 50 to 300 nM.
As for `Nc1nc(O[C@H](c2ccc(Cl)cc2-c2cc(C(F)(F)F)cc(C(F)(F)F)c2)C(F)(F)F)cc(N2CCC3(CC2)CN[C@H](C(=O)O)C3)n1` [Example 34bh, (S)-8-(2-amino-6-((R)-1-(5-chloro-3′,5′-bis(trifluoromethyl)-[1,1′-biphenyl]-2-yl)-2,2,2-trifluoroethoxy)pyrimidin-4-yl)-2,8-diazaspiro[4.5]decane-3-carboxylic acid], the IC50 was 300 to 3000 nM.
The same measure, in the same setting: as for `CC(C)c1cccc(-c2cc(Cl)ccc2[C@@H](Oc2cc(N3CCC4(CC3)CN[C@H](C(=O)O)C4)nc(N)n2)C(F)(F)F)c1` [Example 34bi, (S)-8-(2-amino-6-((R)-1-(5-chloro-3′-isopropyl-[1,1′-biphenyl]-2-yl)-2,2,2-trifluoroethoxy)pyrimidin-4-yl)-2,8-diazaspiro[4.5]decane-3-carboxylic acid], the figure is under 50 nM; as for `Nc1nc(O[C@H](c2ccc(Cl)cc2-c2cc(Cl)cc(Cl)c2)C(F)(F)F)cc(N2CCC3(CC2)CN[C@H](C(=O)O)C3)n1` [Example 34bj, (S)-8-(2-amino-6-((R)-2,2,2-trifluoro-1-(3′,5,5′-trichloro-[1,1′-biphenyl]-2-yl)ethoxy)pyrimidin-4-yl)-2,8-diazaspiro[4.5]decane-3-carboxylic acid], under 50 nM; as for `Nc1nc(O[C@H](c2ccc(Cl)cc2-c2ccc(F)c(C(F)(F)F)c2)C(F)(F)F)cc(N2CCC3(CC2)CN[C@H](C(=O)O)C3)n1` [Example 34bk, (S)-8-(2-amino-6-((R)-1-(5-chloro-4′-fluoro-3′-(trifluoromethyl)-[1,1′-biphenyl]-2-yl)-2,2,2-trifluoroethoxy)pyrimidin-4-yl)-2,8-diazaspiro[4.5]decane-3-carboxylic acid], 50 to 300 nM.
`CC(C)Oc1cc(F)cc(-c2cc(Cl)ccc2[C@@H](Oc2cc(N3CCC4(CC3)CN[C@H](C(=O)O)C4)nc(N)n2)C(F)(F)F)c1` [Example 34bl, (S)-8-(2-amino-6-((R)-1-(5-chloro-3′-fluoro-5′-isopropoxy-[1,1′-biphenyl]-2-yl)-2,2,2-trifluoroethoxy)pyrimidin-4-yl)-2,8-diazaspiro[4.5]decane-3-carboxylic acid]: the IC50 is 50 to 300 nM.
